Measured values from patent US20080262044A1, “Pesticidal Mixtures” (Syngenta Participations AG, priority 2005, published 2008).

Key:
Spodoptera littoralis L2 = assay: Action against Spodoptera littoralis L2 (sprayed cotton leaves, petri dish); format: in vivo; conditions: 96 h
Experimental: The following day leaves were placed in petri dishes containing a moist filter paper and 10 L2 larvae placed on the leaves. Petri dishes were covered with gauze and closed with a lid and left at a temperature of 25° C., 40-60% relative humidity and 16L:8D conditions. Assessment of dead and alife larvae was performed after four days. (30 insects assessed per treatment).

[1] = tested on: Aphis craccivora (nymphs); assay: Action against Aphis craccivora (nymphs), bean leaf disks; format: in vivo; conditions: foliar, 96 h, Table B4, Pyroquilon 1 ppm, WP 25, nymphs on bean leaf disks, after four days
Experimental: Fourteen day old bean plants (Vicia faba var. Wittkiens) were sprayed with 60 ml sample solution. The following day 3.5 cm leaf disks were cut and placed in petri dishes containing 2 ml agar (2%) and 5-10 adult aphids placed on the leaves. Petri dishes were covered with gauze and closed with a lid and placed up-side down. The following day all adult aphids were removed and only nymphs left on the leaf at a temperature of 20° C., 60% relative humidity and 16L:8D conditions. Assessment of dead and alife aphids performed after four days. (3 replicates per treatment).

**Q.** For `O=C1CCc2cccc3c2N1CC3` [Pyroquilon, pyroquilon], which mortality at 1 ppm (Spodoptera littoralis L2; Table B1, Pyroquilon 1 ppm, WP 25, L2 larvae on cotton leaves, after four days) is on record?
**A.** The mortality at 1 ppm was 6.7%.

**Q.** And the mortality at 10 ppm (Spodoptera littoralis L2; Table B3, Pyroquilon 10 ppm, WP 25, after four days)?
**A.** The mortality at 10 ppm was 6.7%.

**Q.** And the mortality at 1 ppm [1]?
**A.** Its mortality at 1 ppm is 3.3%.
